Measurements: patent US11524938B2, “Aromatic sulfonamide derivatives” (Bayer Pharma Aktiengesellschaft, priority 2016, dated 2022)

Molecular target: T1, human P2X4 (Homo sapiens, UniProt Q99571)
T1 sequence (Q99571 1-388): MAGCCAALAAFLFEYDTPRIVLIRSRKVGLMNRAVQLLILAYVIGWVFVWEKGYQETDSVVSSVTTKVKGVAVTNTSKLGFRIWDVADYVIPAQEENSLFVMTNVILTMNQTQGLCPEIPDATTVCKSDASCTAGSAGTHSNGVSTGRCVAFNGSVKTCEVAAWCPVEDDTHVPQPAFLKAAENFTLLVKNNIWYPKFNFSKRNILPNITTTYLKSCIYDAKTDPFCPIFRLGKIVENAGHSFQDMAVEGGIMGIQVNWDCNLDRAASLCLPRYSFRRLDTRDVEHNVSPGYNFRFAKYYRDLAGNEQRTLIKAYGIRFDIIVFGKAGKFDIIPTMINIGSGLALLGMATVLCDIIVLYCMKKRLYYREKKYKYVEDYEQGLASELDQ
Assay: Human P2X4 HEK Cell FLIPR Assay
Assay type: cell-based
Settings: agonist Bz-ATP at EC80; for Emax: HEK293, HEK293 cells, percentage of maximal inhibition, read-out: Human P2X4 HEK Cells (FLIPR Assay) avg Efficacy [%]; for IC50: HEK293 cells, individual values listed where some fall outside detection range
Description: HEK293 cells stably expressing human P2X4 were plated in poly-D-lysine-coated 384-well plates at a seeding density of 30000 cells/well and incubated overnight. P2X4 function was assessed by measuring intracellular calcium changes using the calcium-chelating dye Fluo8-AM (Molecular Devices) on a fluorescent imaging plate reader (FLEX/FLIPR station; Molecular Devices). On the day of the assay, the medium was removed and the cells were incubated for 30 min at 37° C. and 5% CO2 in 30 μL of dye buffer (Hank's balanced salt solution, 10 mM HEPES, 1.8 mM CaCl2, 1 mM MgCl2, 2 mM probenecid, 5 mM D-glucose monohydrate, 5 μM Fluo8-AM, pH=7.4). Compounds diluted in probenecid buffer (Hank's balanced salt solution, 10 mM HEPES, 1.8 mM CaCl2, 1 mM MgCl2, 2 mM probenecid, 5 mM D-glucose monohydrate, pH=7.4) were added in a volume of 10 μL and allowed to incubate for 30 min at room temperature. The final assay DMSO concentration was 0.5%. The agonist, Bz-ATP (Tocris), was added in a volume of 10 μL at a concentration representing the EC80 value. The EC80 value of Bz-ATP was determined each assay day prior to compound profiling. The fluorescence was measured for an interval of 120 sec at 2 sec intervals. The excitation and emission wavelengths used to monitor fluorescence were 470-495 nm and 515-575 nm, respectively. The data was analyzed based on the increase in peak relative fluorescence units (RFU) compared to the basal fluorescence and the data was normalized to the agonist control. The compounds were tested in triplicates per plate and mean values were plotted in Excel XLFit to determine IC50 values, percentage of maximal inhibition and the Hill coefficients.

Emax	IC50	SMILES
74%	1400 nM	NS(=O)(=O)c1cc(NC(=O)Cc2cccc(F)c2)ccc1-n1cnc(C(F)(F)F)n1 [Example 55, 2-(3-Fluorophenyl)-N-{3-sulfamoyl-4-[3-(trifluoromethyl)-1H-1,2,4-triazol-1-yl]-phenyl}acetamide]
70%	121 nM	NS(=O)(=O)c1cc(NC(=O)Cc2ccc(F)cc2Cl)ccc1-n1cnc(C(F)(F)F)n1 [Example 56, 2-(2-Chloro-4-fluorophenyl)-N-{3-sulfamoyl-4-[3-(trifluoromethyl)-1H-1,2,4-triazol-1-yl]phenyl}acetamide]
71%	141 nM	NS(=O)(=O)c1cc(NC(=O)Cc2ccccc2OC(F)F)ccc1-n1cnc(C(F)(F)F)n1 [Example 57, 2-[2-(Difluoromethoxy)phenyl]-N-{3-sulfamoyl-4-[3-(trifluoromethyl)-1H-1,2,4-triazol-1-yl]phenyl}acetamide]
54%	73 nM	NS(=O)(=O)c1cc(NC(=O)Cc2cc(F)ccc2Cl)ccc1-n1cnc(C(F)(F)F)n1 [Example 58, 2-(2-Chloro-5-fluorophenyl)-N-{3-sulfamoyl-4-[3-(trifluoromethyl)-1H-1,2,4-triazol-1-yl]phenyl}acetamide]
73%	4650 nM	NS(=O)(=O)c1cc(NC(=O)Cc2ccncc2Cl)ccc1-n1cnc(C(F)(F)F)n1 [Example 59, 2-(3-Chloropyridin-4-yl)-N-{3-sulfamoyl-4-[3-(trifluoromethyl)-1H-1,2,4-triazol-1-yl]phenyl}acetamide]
80%	917 nM	NS(=O)(=O)c1cc(NC(=O)Cc2ccc(C(F)F)cc2)ccc1-n1cnc(C(F)(F)F)n1 [Example 60, 2-[4-(Difluoromethyl)phenyl]-N-{3-sulfamoyl-4-[3-(trifluoromethyl)-1H-1,2,4-triazol-1-yl]phenyl}acetamide]
79%	400 nM	NS(=O)(=O)c1cc(NC(=O)C(F)(F)c2ccccc2Cl)ccc1-n1cnc(C(F)(F)F)n1 [Example 61, 2-(2-Chlorophenyl)-2,2-difluoro-N-{3-sulfamoyl-4-[3-(trifluoromethyl)-1H-1,2,4-triazol-1-yl]phenyl}acetamide]
94%	249 nM	NS(=O)(=O)c1cc(NC(=O)C(F)(F)c2ccccc2Cl)ccc1-n1cc(Br)cn1 [Example 62, N-[4-(4-Bromo-1H-pyrazol-1-yl)-3-sulfamoylphenyl]-2-(2-chlorophenyl)-2,2-difluoroacetamide]
87%	130 nM	NS(=O)(=O)c1cc(NC(=O)Cc2ccccc2F)ccc1-n1cc(Br)cn1 [Example 63, N-[4-(4-Bromo-1H-pyrazol-1-yl)-3-sulfamoylphenyl]-2-(2-fluorophenyl)acetamide]
83%	104 nM	NS(=O)(=O)c1cc(NC(=O)Cc2ccccc2C(F)(F)F)ccc1-n1cc(Br)cn1 [Example 64, N-[4-(4-Bromo-1H-pyrazol-1-yl)-3-sulfamoylphenyl]-2-[2-(trifluoromethyl)-phenyl]acetamide]
62%	355 nM	NS(=O)(=O)c1cc(NC(=O)Cc2cccc(F)c2)ccc1-n1cc(Br)cn1 [Example 65, N-[4-(4-Bromo-1H-pyrazol-1-yl)-3-sulfamoylphenyl]-2-(3-fluorophenyl)acetamide]
90%	86 nM	Cc1ccccc1CC(=O)Nc1ccc(-n2cc(Br)cn2)c(S(N)(=O)=O)c1 [Example 66, N-[4-(4-Bromo-1H-pyrazol-1-yl)-3-sulfamoylphenyl]-2-(2-methylphenyl)acetamide]
98%	1510 nM	NS(=O)(=O)c1cc(NC(=O)Cc2cccnc2Cl)ccc1-n1cc(Br)cn1 [Example 67, N-[4-(4-Bromo-1H-pyrazol-1-yl)-3-sulfamoylphenyl]-2-(2-chloropyridin-3-yl)-acetamide]
75%	128 nM	NS(=O)(=O)c1cc(NC(=O)Cc2ccc(F)cc2Cl)ccc1-n1cc(Br)cn1 [Example 68, N-[4-(4-Bromo-1H-pyrazol-1-yl)-3-sulfamoylphenyl]-2-(2-chloro-4-fluorophenyl)-acetamide]
80%	210 nM	NS(=O)(=O)c1cc(NC(=O)Cc2ccccc2OC(F)F)ccc1-n1cc(Br)cn1 [Example 69, N-[4-(4-Bromo-1H-pyrazol-1-yl)-3-sulfamoylphenyl]-2-[2-(difluoromethoxy)-phenyl]acetamide]
85%	118 nM	NS(=O)(=O)c1cc(NC(=O)Cc2ccccc2OC(F)(F)F)ccc1-n1cc(Br)cn1 [Example 70, N-[4-(4-Bromo-1H-pyrazol-1-yl)-3-sulfamoylphenyl]-2-[2-(trifluoromethoxy)-phenyl]acetamide]
80%	132 nM	NS(=O)(=O)c1cc(NC(=O)Cc2cc(F)c(F)cc2Cl)ccc1-n1cc(Br)cn1 [Example 71, N-[4-(4-Bromo-1H-pyrazol-1-yl)-3-sulfamoylphenyl]-2-(2-chloro-4,5-difluorophenyl)-acetamide]
96%	576 nM	NS(=O)(=O)c1cc(NC(=O)Cc2ccncc2Cl)ccc1-n1cc(Br)cn1 [Example 72, N-[4-(4-Bromo-1H-pyrazol-1-yl)-3-sulfamoylphenyl]-2-(3-chloropyridin-4-yl)acetamide]
52%	168 nM	NS(=O)(=O)c1cc(NC(=O)Cc2ccc(C(F)F)cc2)ccc1-n1cc(Br)cn1 [Example 73, N-[4-(4-Bromo-1H-pyrazol-1-yl)-3-sulfamoylphenyl]-2-[4-(difluoromethyl)-phenyl]acetamide]
84%	49 nM	NS(=O)(=O)c1cc(NC(=O)Cc2ccccc2Br)ccc1-n1cc(Cl)cn1 [Example 74, 2-(2-Bromophenyl)-N-[4-(4-chloro-1H-pyrazol-1-yl)-3-sulfamoylphenyl]acetamide]
87%	213 nM	COc1ccccc1CC(=O)Nc1ccc(-n2cc(Cl)cn2)c(S(N)(=O)=O)c1 [Example 75, N-[4-(4-Chloro-1H-pyrazol-1-yl)-3-sulfamoylphenyl]-2-(2-methoxyphenyl)acetamide]
34%	> 25000 nM	NS(=O)(=O)c1cc(NC(=O)Cc2ccc(Cl)cc2)ccc1-n1cc(Cl)cn1 [Example 76, 2-(4-Chlorophenyl)-N-[4-(4-chloro-1H-pyrazol-1-yl)-3-sulfamoylphenyl]acetamide]
82%	71 nM	NS(=O)(=O)c1cc(NC(=O)Cc2c(F)cccc2Cl)ccc1-n1cc(Cl)cn1 [Example 77, 2-(2-Chloro-6-fluorophenyl)-N-[4-(4-chloro-1H-pyrazol-1-yl)-3-sulfamoylphenyl]-acetamide]
97%	517 nM	NS(=O)(=O)c1cc(NC(=O)Cc2ccccc2[N+](=O)[O-])ccc1-n1cc(Cl)cn1 [Example 78, N-[4-(4-Chloro-1H-pyrazol-1-yl)-3-sulfamoylphenyl]-2-(2-nitrophenyl)acetamide]
78%	2030 nM	NS(=O)(=O)c1cc(NC(=O)Cc2ccc(Cl)cc2Cl)ccc1-n1cc(Cl)cn1 [Example 79, N-[4-(4-Chloro-1H-pyrazol-1-yl)-3-sulfamoylphenyl]-2-(2,4-dichlorophenyl)acetamide]
